Results as given in US9580430B2, “9H-pyrimido[4,5-B]indoles and related analogs as BET bromodomain inhibitors” (THE REGENTS OF THE UNIVERSITY OF MICHIGAN, priority 2014, dated 2017).

What was measured:
AR-positive cells = assay: Cell cycle analysis and apoptosis (cleaved PARP immunoblot); type: cell-based; settings: FIG. 2
Protocol: For cell cycle analysis, cells were washed 48 h post-treatment with PBS and fixed in 70% ethanol overnight. The cells were washed again with PBS, stained with propidium iodide and analyzed by flow cytometry.
For Western blot analysis, 200 ug total protein extract was boiled in sample buffer and 10-20 μg aliquots were separated by SDS-PAGE and transferred onto Polyvinylidene Difluoride membrane (GE Healthcare). The membrane was incubated for one hour in blocking buffer [Tris-buffered saline, 0.1% Tween (TBS-T), 5% nonfat dry milk] followed by incubation overnight at 4° C. with the primary antibody. Following a wash with TBS-T, the blot was incubated with horseradish peroxidase-conjugated secondary antibody and signals were visualized by enhanced chemiluminescence system as per manufacturer's protocol (GE Healthcare).

[1] = tested on: 5 prostate cancer and 1 benign prostate cell line; assay: Cell viability assay, panel of prostate cell lines (Cell-Titer GLO); type: cell-based; settings: three of the AR-signaling positive cells; FIG. 1
Protocol: VCaP prostate cancer cells were grown in DMEM with Glutamax (Gibco), LNCaP, 22RV1, DU145 and PC3 prostate cancer cell lines were grown in RPMI 1640, all were supplemented with 10% FBS (Invitrogen) in 5% CO2 cell culture incubator. The immortalized benign prostate cell line RWPE-1 was grown in keratinocyte media with supplements (Lonza). All cell lines were tested and found to be free of mycoplasma contamination.
Cells were seeded in 96-well plates at 2000-10,000 cells/well (optimum density for growth) in a total volume of 100 μl media containing 10% FBS. Serially diluted compounds in 100 μl media were added to the cells 12 h later. Following 96 h. incubation, cell viability was assessed by Cell-Titer GLO (Promega). The values were normalized and IC50 was calculated using GraphPad Prism software. […] After 12 days cells were fixed with methanol, stained with crystal violet and photographed. For colorimetric assays, the stained wells were treated with 500 μl 10% acetic acid and the absorbance was measured at 560 nm using a spectrophotometer.

Cc1sc2c(c1C)C(c1ccc(Cl)cc1)=N[C@@H](CC(=O)OC(C)(C)C)c1nnc(C)n1-2 [JQ1] was tested, and the “cell cycle arrest and apoptosis” value (AR-positive cells) was “induced G0-G1 arrest, apoptosis” and the “sensitivity of prostate cell lines” value [1] was “sensitive”.
